These results are taken from PubChem BioAssay AID2206 (Vanderbilt High Throughput Screening Facility, 2009).

By EC50 is commonly meant the midpoint of the concentration-response curve.

Molecules are shown by their SMILES. Activity calls are given as the source filed them.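 The calls were made as follows: active = average EC50 below 10 µM; inactive = average EC50 of 10 µM or more.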

The target of the test is Muscarinic acetylcholine receptor M1 (Rattus norvegicus) (UniProt P08482). The experiment in a line: potentiation of ACh EC20 at rat M1 – cell-based, selectivity assay for M5 allosteric modulator project, SAR follow-up (AID 2206). Particulars: CHO-K1 rat M1, Fluo-4 calcium.
Sequence of Muscarinic acetylcholine receptor M1 (Rattus norvegicus) (P08482 whole entry, looked up): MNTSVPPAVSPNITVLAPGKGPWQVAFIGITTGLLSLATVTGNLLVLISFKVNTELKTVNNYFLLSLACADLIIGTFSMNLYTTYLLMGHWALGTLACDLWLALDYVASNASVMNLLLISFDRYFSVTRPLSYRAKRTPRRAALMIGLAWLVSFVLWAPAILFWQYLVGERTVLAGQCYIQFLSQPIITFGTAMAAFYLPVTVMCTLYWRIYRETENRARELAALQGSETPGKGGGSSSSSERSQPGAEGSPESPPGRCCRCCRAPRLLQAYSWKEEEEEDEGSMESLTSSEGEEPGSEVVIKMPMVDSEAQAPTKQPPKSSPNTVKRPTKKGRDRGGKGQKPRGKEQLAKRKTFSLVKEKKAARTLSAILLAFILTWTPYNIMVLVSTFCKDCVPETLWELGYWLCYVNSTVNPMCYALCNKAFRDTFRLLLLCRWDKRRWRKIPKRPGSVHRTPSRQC
With `O=C1C(=O)N(Cc2ccccc2C(F)(F)F)c2c(F)cccc21`, the EC50 was > 30 µM (inactive).
As for `COc1ccc(CN2C(=O)C(=O)c3ccccc32)cc1`, the entry is “inactive”; as for `O=C1C(=O)N(Cc2ccc(Br)cc2)c2c(F)cccc21`, 3.99 µM; as for `O=C1C(=O)N(Cc2ccc(Br)cc2F)c2ccc(OC(F)(F)F)cc21`, > 10 µM (inactive).
For `COc1ccc(CN2C(=O)C(=O)c3cc(OC(F)(F)F)ccc32)cc1`, the EC50 is > 30 µM (inactive).
In the case of `O=C1C(=O)N(Cc2ccc(C(F)(F)F)cc2)c2c(F)cccc21` it was 5.18 µM; in that of `O=C1C(=O)N(Cc2ccc(C(F)(F)F)cc2)c2ccc(Cl)cc21`, 5.41 µM.
In the case of `O=C1C(=O)N(Cc2ccccc2Cl)c2ccc(OC(F)(F)F)cc21` it was > 30 µM (inactive).
As for `O=C1C(=O)N(Cc2ccc(OC(F)(F)F)cc2)c2ccc(OC(F)(F)F)cc21`, the figure is > 30 µM (inactive).
Consider `Cc1ccccc1CN1C(=O)C(=O)c2cc(OC(F)(F)F)ccc21`, for which the EC50 is > 10 µM (inactive).
In the case of `O=C1C(=O)N(Cc2ccc(C(F)(F)F)cc2)c2ccc(OC(F)(F)F)cc21` it was 7.09 µM.
In the case of `COc1ccc(CN2C(=O)C(=O)c3cccc(Cl)c32)cc1` it was 5.38 µM.
Consider `O=C1C(=O)N(Cc2ccccc2C(F)(F)F)c2ccc(F)cc21`, for which the EC50 was 6.21 µM.
As for `COc1cccc(CN2C(=O)C(=O)c3cc(OC(F)(F)F)ccc32)c1`, the figure is > 30 µM (inactive); as for `COc1cccc(CN2C(=O)C(=O)c3c(Cl)ccc(Cl)c32)c1`, > 30 µM (inactive).
